Assay results published in PMC6160999, “Pharmacokinetics, Tissue Distribution and Excretion of a Novel Diuretic (PU-48) in Rats” (Pharmaceutics, 2018).
Like-named read-outs stand apart in the source and are kept apart here.

Key:
[1] = Tissue distribution after single oral PU-48 SNEDDS; format: in vivo; details: rat, oral PU-48 SNEDDS 12 mg/kg
Description: Internal standard (IS, 25 μL) was added to 50 μL plasma, urine, or bile sample in a clean tube, placed into a water bath at 37 °C, and dried under a gentle stream of nitrogen gas, followed by the addition of 0.5 mL of ethyl acetate for liquid-liquid extraction. The mixture was shaken by a vortex mixer for 3 min, and then centrifuged at 8000 rpm (4200× g) for 10 min at 4 °C. After centrifugation, the upper organic phase was transferred into a clean centrifuge tube and then dried it again. The combined upper organic phases were evaporated to dryness at 37 °C under a gentle stream of nitrogen gas. The residue was reconstituted with 50 μL acetonitrile and then centrifuged at 13,000 rpm (12,000× g) for 10 min at 4 °C, the upper liquid was transferred into sample vials. Finally, 5 μL aliquots were injected into the LC–MS/MS system to analyze. Each tissue samples were homogenized in normal saline (0.9% NaCl, 1:3, w/v), and then centrifuged at 10,000× g for 10 min to get the supernatant. Other steps were the same as plasma sample preparation.
Thirty rats were divided randomly into five groups and the rats were given single orally administration of PU-48 (12 mg/kg, 1.2 mg/mL in the SNEDDS formulation). […] After the final time point, the rats were sacrificed and thirteen tissues (liver, spleen, lung, kidney, heart, muscle, colon, intestine, stomach, bladder, testicle, adipose, brain) were collected. Tissues samples were rinsed with ice-cold 0.9% normal saline and blotted dry with filter paper. All the samples were weighted and stored at −20 °C until analysis.

[2] = system: plasma protein; experiment: Plasma protein binding by equilibrium dialysis, rat plasma; format: in vitro ADME; details: for Concentration in Buffer (post-dialysis) / Concentration in Plasma (post-dialysis) / Protein-Binding Ratio: rat plasma, n=5; for Concentration in Buffer (post-dialysis) / Concentration in Plasma (post-dialysis): 37 °C 24 h
Description: The concentration of PU-48 prototype in biological sample (feces and plasma protein binding analysis) was determined using a validated high-performance liquid chromatographic (HPLC) method our preliminary experiment (See Supplementary Materials HPLC Analysis and Method Validation). Briefly, the quantitative analysis of PU-48 was performed using a HPLC consistent of model 510 pump with a model 2487 ultraviolet detector, a model Rheodyne 7725 injector, and a column oven. The analytical conditions were as follows—The detection wavelength—293 nm; analytical column—a reversed-phase Acclaim C18 (4.6 mm × 250 mm, 5.0 µm, Dionex, Sunnyvale, CA, USA); column temperature—25 °C; mobile phase—acetonitrile—distilled water at a ratio of 60:40 (v/v); flow rate—1 mL/min. In this study, the methods for the feces samples were evaluated for specificity, linearity, precision, accuracy, and recovery (See Supplementary Materials Tables S4–S6).
The binding ratio of PU-48 to plasma protein was determined by equilibrium dialysis. A volume of 1 mL of plasma with PU-48 (0.25, 1 and 4 µg/mL) was added to a semi-permeable membrane bag (plasma chamber), the bag was place into the other clean tube with 9 mL PBS (buffer chamber). The equilibrium dialysis was performed at 37 °C for 24 h. At the end of dialysis, 500 μL each of post-dialysis samples from the plasma and the buffer chambers were collected and analyzed by HPLC method. The plasma protein binding of PU-48 was calculated from the concentration of PU-48 in PBS (free concentration) and in plasma (free + bound) according to equation: Bound (%) = (Concplasma chamber − Concbuffer chamber)/Concplasma chamber × 100%.

[3] = design: method as in PMID 24055006, PMID 23728001, PMID 9124305, PMID 2671740; details: cited from earlier work
[4] = cited from earlier work
[5] = bladder, read-out: Concentration of PU-48 in bladder
[6] = brain, read-out: Concentration of PU-48 in brain
[7] = colon, read-out: Concentration of PU-48 in colon
[8] = fat, read-out: Concentration of PU-48 in fat
[9] = heart, read-out: Concentration of PU-48 in heart
[10] = intestine, read-out: Concentration of PU-48 in intestine
[11] = kidney, read-out: Concentration of PU-48 in kidney
[12] = liver, read-out: Concentration of PU-48 in liver
[13] = lung, read-out: Concentration of PU-48 in lung
[14] = male, testicle, read-out: Concentration of PU-48 in testicle
[15] = muscle, read-out: Concentration of PU-48 in muscle
[16] = plasma, read-out: Concentration of PU-48 in plasma
[17] = spleen, read-out: Concentration of PU-48 in spleen
[18] = stomach, read-out: Concentration of PU-48 in stomach

concentration at 0.5 h [1, 5]: 258 ± 94.2 ng/g
concentration at 1 h [1, 5]: 368 ± 124 ng/g
concentration at 6 h [1, 5]: 43.4 ± 10.7 ng/g
concentration at 12 h [1, 5]: 6.1 ± 3.2 ng/g
concentration at 24 h [1, 5]: 8.6 ± 6.5 ng/g
concentration at 0.5 h [1, 6]: 111 ± 23.3 ng/g
concentration at 1 h [1, 6]: 68.1 ± 52.7 ng/g
concentration at 6 h [1, 6]: 15.7 ± 19.3 ng/g
concentration at 12 h [1, 6]: 1.7 ± 1.5 ng/g
concentration at 0.5 h [1, 7]: 90.4 ± 30 ng/g
concentration at 1 h [1, 7]: 172 ± 89.5 ng/g
concentration at 6 h [1, 7]: 35.2 ± 14.7 ng/g
concentration at 12 h [1, 7]: 28.6 ± 21.7 ng/g
concentration at 24 h [1, 7]: 14.1 ± 5.6 ng/g
concentration at 0.5 h [1, 8]: 481 ± 398 ng/g
concentration at 1 h [1, 8]: 99.3 ± 26.9 ng/g
concentration at 6 h [1, 8]: 52.3 ± 43.2 ng/g
concentration at 12 h [1, 8]: 2.7 ± 1.9 ng/g
concentration at 24 h [1, 8]: 0.7 ± 0.6 ng/g
concentration at 0.5 h [1, 9]: 251 ± 78.4 ng/g
concentration at 1 h [1, 9]: 125 ± 31 ng/g
concentration at 6 h [1, 9]: 11.3 ± 11.2 ng/g
concentration at 24 h [1, 9]: 0.5 ng/g
concentration at 0.5 h [1, 10]: 655 ± 89.3 ng/g
concentration at 1 h [1, 10]: 777 ± 277 ng/g
concentration at 6 h [1, 10]: 209 ± 166 ng/g
concentration at 12 h [1, 10]: 45.4 ± 18.9 ng/g
concentration at 24 h [1, 10]: 9 ± 4.7 ng/g
concentration at 0.5 h [1, 11]: 416 ± 138 ng/g
concentration at 1 h [1, 11]: 297 ± 241 ng/g
concentration at 6 h [1, 11]: 44.5 ± 33.9 ng/g
concentration at 12 h [1, 11]: 4.7 ± 1.1 ng/g
concentration at 24 h [1, 11]: 5.3 ± 3.4 ng/g
concentration at 0.5 h [1, 12]: 622 ± 183 ng/g
concentration at 1 h [1, 12]: 534 ± 228 ng/g
concentration at 6 h [1, 12]: 42.7 ± 27.3 ng/g
concentration at 12 h [1, 12]: 13.4 ± 3.1 ng/g
concentration at 24 h [1, 12]: 20.4 ± 12.2 ng/g
concentration at 0.5 h [1, 13]: 231 ± 79.3 ng/g
concentration at 1 h [1, 13]: 174 ± 91.4 ng/g
concentration at 6 h [1, 13]: 7.2 ± 5.7 ng/g
concentration at 12 h [1, 13]: 0.9 ± 0.1 ng/g
concentration at 24 h [1, 13]: 1.3 ± 0.9 ng/g
concentration at 0.5 h [1, 14]: 34.2 ± 21.2 ng/g
concentration at 1 h [1, 14]: 51.7 ± 24.4 ng/g
concentration at 6 h [1, 14]: 9.5 ± 8.5 ng/g
concentration at 12 h [1, 14]: 1.5 ± 0.7 ng/g
concentration at 24 h [1, 14]: 1.4 ± 1.1 ng/g
concentration at 0.5 h [1, 15]: 39.8 ± 28.6 ng/g
concentration at 1 h [1, 15]: 52 ± 25.5 ng/g
concentration at 6 h [1, 15]: 4.5 ± 3.5 ng/g
concentration at 12 h [1, 15]: 2 ± 1.9 ng/g
concentration at 24 h [1, 15]: 1.4 ± 1.5 ng/g
concentration at 0.5 h [1, 16]: 277 ± 42.4 ng/mL
concentration at 1 h [1, 16]: 119 ± 63.5 ng/mL
concentration at 6 h [1, 16]: 16.8 ± 26.4 ng/mL
concentration at 12 h [1, 16]: 2.4 ± 1.7 ng/mL
concentration at 24 h [1, 16]: 0.3 ± 0.1 ng/mL
Peak concentration of PU-48 in brain [1]: 111.1 ± 23.3 ng/mL
Tmax ([1]; thirteen tissues, read-out: Peak time (Tmax) of PU-48 in analyzed tissues): 30 to 60 min
concentration at 0.5 h [1, 17]: 266 ± 120 ng/g
concentration at 1 h [1, 17]: 161 ± 64 ng/g
concentration at 6 h [1, 17]: 15.2 ± 12.9 ng/g
concentration at 12 h [1, 17]: 3.8 ± 5.7 ng/g
concentration at 24 h [1, 17]: 9.9 ± 12 ng/g
concentration at 0.5 h [1, 18]: 887 ± 235 ng/g
concentration at 1 h [1, 18]: 2020 ± 822 ng/g
concentration at 6 h [1, 18]: 509 ± 160 ng/g
concentration at 12 h [1, 18]: 104 ± 28.4 ng/g
concentration at 24 h [1, 18]: 7 ± 3.1 ng/g
concentration at 24 h ([1]; tissues except liver and colon, read-out: Concentrations of PU-48 in tissues except liver and colon): < 10 ng/g
Concentration in Buffer (post-dialysis) ([2]; added 0.25 µg/mL): 12 ± 3 ng/mL
Concentration in Plasma (post-dialysis) ([2]; added 0.25 µg/mL): 127 ± 7 ng/mL
Protein-Binding Ratio ([2]; added 0.25 µg/mL): 90.70 ± 2.18%
Concentration in Buffer (post-dialysis) ([2]; added 1 µg/mL): 47 ± 2 ng/mL
Concentration in Plasma (post-dialysis) ([2]; added 1 µg/mL): 524 ± 32 ng/mL
Protein-Binding Ratio ([2]; added 1 µg/mL): 91.06 ± 0.78%
Concentration in Buffer (post-dialysis) ([2]; added 4 µg/mL): 194 ± 19 ng/mL
Concentration in Plasma (post-dialysis) ([2]; added 4 µg/mL): 2128 ± 166 ng/mL
Protein-Binding Ratio ([2]; added 4 µg/mL): 90.83 ± 1.17%
fraction unbound at 24 h ([2]; rat, plasma, rats, overall statement): < 0.1
Compound: COC(=O)c1sc2nc3ccc(OC)cc3cc2c1N [PU-48, Methyl 3-amino-6-methoxythieno [2,3-b] quinoline-2-carboxylate]
Blood brain barrier crossing ([1]; inferred from brain concentration): could cross the blood brain barrier (BBB)
Serum levels of sodium, chloride, or potassium [3]: did not change
Diuretic activity ([4]; rodents, compared to the other thienoquinolin lead compounds): more potent diuretic activity
Diuretic activity ([4]; wild-type and UT-gene knockout mice): potent diuretic activity
